“Also recorded” adds a separate entry of the source.
Experiments:
[1] = ip or oral administration; U.S. Pat. No. 3,995,061; cited from earlier work
[2] = tested on: glucose transporter 1 (GLUT-1); conditions: Jeong et al. 2011; cited from earlier work
[3] = U.S. Pat. No. 3,995,061; cited from earlier work
[4] = tested on: vascular endothelial growth factor (VEGF); conditions: Jeong et al. 2011; cited from earlier work
hnRNP L [5] = assay: Western blot of hnRNP L level in ascochlorin-treated cultured rat primary cortical neurons; type: cell-based; conditions: rat embryonic/primary cortical neurons, hnRNP L 60 KDa
Description: (§1) Compounds that modify hnRNP L levels therefore hold promise as lead structures for the development of ASD/mental retardation/neurological disorders.

hnRNP L [6] = conditions: Kang et al. 2006, cited from earlier work
GADPH = assay: Western blot of control protein level in ascochlorin-treated rat embryonic cortical neurons; type: cell-based
Description: as §1

BIN1 = conditions: human osteosarcoma cells (U2OS), proteome analysis, Kang et al. 2006; cited from earlier work

SMILES | toxicity as assessed by LD50 [1] | expression of GLUT-1 [2] | tolerability in clinical trials [3] | expression of VEGF [4] | level of hnRNP L (hnRNP L [5]) | hnRNP L protein levels in vitro (in words) (hnRNP L [6]; U2OS osteosarcoma cells) | increase in hnRNP L protein level (hnRNP L [6]; human osteosarcoma cells (U2OS), proteome analysis) | level of the control protein (GADPH 40 KDa) (GADPH) | increase in BIN1 protein level (BIN1)
CCOc1c(Cl)c(C)c(C=O)c(O)c1C/C=C(C)/C=C/C1(C)C(C)CCC(=O)C1C (stereo not shown) [4-O-ethyl-ascochlorin] | low toxicity | – | – | – | – | – | – | – | –
COc1c(Cl)c(C)c(C=O)c(O)c1C/C=C(C)/C=C/[C@@]1(C)[C@H](C)CCC(=O)[C@@H]1C [MAC, 4-O-methylascochlorin] | low toxicity | increases the expression | well tolerated | increases the expression | – | – | – | – | –
CC(/C=C/[C@@]1(C)[C@H](C)CCC(=O)[C@@H]1C)=C\Cc1c(O)c(Cl)c(C)c(C=O)c1O [ascochlorin] | – | – | – | – | increases the level of hnRNP L; also recorded: increase hnRNP L levels in neurons; also recorded: increased levels of hnRNP L | increase hnRNP L protein levels in vitro | 12 × | does not affect the level of the control protein | 10 ×
